Laboratory results published in the Deep4Chem optical property database.

Test: solvent given as SMILES
[1] = in O=P(c1ccccc1)(c1ccccc1)c1ccccc1Oc1ccccc1P(=O)(c1ccccc1)c1ccccc1

Structure (SMILES): CC1(C)c2ccccc2N(c2ccc3c(c2)Oc2ccccc2P3(=O)c2ccccc2)c2ccccc21 (stereo not given)
- emission maximum (in Cc1ccccc1): 433 nm
- emission maximum [1]: 434 nm

Structure (SMILES): N#Cc1ccc(-n2c(-c3ccc(-c4ccc(-n5c6ccccc6c6ccccc65)cc4)s3)nc3c4ccccc4c4ccccc4c32)c2ccccc12
- emission maximum (in ClCCl): 400 nm

Structure (SMILES): Cc1ccc(Nc2ccc(Nc3ccc(C)cc3)c3c2C(=O)c2ccccc2C3=O)cc1
- emission maximum (in C1CCCCC1): 680 nm
- emission maximum (in C1COCCO1): 684 nm
- emission maximum (in CC(C)=O): 684 nm
- emission maximum (in CCCCCCCCCCO): 682 nm
- emission maximum (in CCCCCCCO): 684 nm
- emission maximum (in CCCCCCO): 682 nm
- emission maximum (in CCCCO): 683 nm
- emission maximum (in CCO): 684 nm
- emission maximum (in CN(C)C=O): 686 nm
- emission maximum (in CO): 682 nm
- emission maximum (in CS(C)=O): 689 nm
- emission maximum (in ClC(Cl)(Cl)Cl): 685 nm
- emission maximum (in c1ccccc1): 684 nm

Structure (SMILES): N#Cc1c(N2c3ccccc3C(c3ccccc3)(c3ccccc3)c3ccccc32)cccc1N1c2ccccc2C(c2ccccc2)(c2ccccc2)c2ccccc21
- emission maximum (in Cc1ccccc1): 454 nm
- emission maximum [1]: 466 nm

Structure (SMILES): [NH3+]c1ccc2ccc(O)cc2c1
- emission maximum (in O): 357 nm

Structure (SMILES): C=Cc1cc2ccc(N(CC)CC)cc2oc1=O
- emission maximum (in CC#N): 470 nm

Structure (SMILES): CCN(CC)c1ccc2cc(C#N)/c(=N\C(=O)c3ccc(C)cc3)oc2c1
- emission maximum (in CCO): 530 nm
- emission maximum (in ClCCl): 502 nm

Structure (SMILES): CC(C)(C)n1c(=O)c2cc3ccc4cccc5ccc(c2c1=O)c3c45
- emission maximum (in ClC(Cl)Cl): 451 nm

Structure (SMILES): Nc1nc2ccccc2[n+]([O-])n1
- emission maximum (in CC#N): 478 nm
- emission maximum (in O): 521 nm

Structure (SMILES): Cn1c(=O)c(-c2ccccc2)nc2ccccc21
- emission maximum (in c1ccccc1): 424 nm

Structure (SMILES): Cc1cc2c(ccc3c[n+](C)c(C)cc32)c[n+]1C
- emission maximum (in CC#N): 419 nm

Structure (SMILES): CC(C)(C)c1ccc2c(c1)c1cc(C(C)(C)C)ccc1n2-c1ccc(N(c2ccc(-c3ccc(-c4ccc(-c5ccc(-c6ccc(N(c7ccc(-n8c9ccc(C(C)(C)C)cc9c9cc(C(C)(C)C)ccc98)cc7)c7ccc(-n8c9ccc(C(C)(C)C)cc9c9cc(C(C)(C)C)ccc98)cc7)cc6)s5)c5nsnc45)s3)cc2)c2ccc(-n3c4ccc(C(C)(C)C)cc4c4cc(C(C)(C)C)ccc43)cc2)cc1
- emission maximum (in ClCCl): 640 nm

Structure (SMILES): CCn1c2ccccc2c2cc(C#Cc3cc(C#Cc4ccc5c(c4)c4ccccc4n5CC)nc(C#N)n3)ccc21
- emission maximum (in C1CCOC1): 495 nm
- emission maximum (in CCOC(C)=O): 494 nm
- emission maximum (in CN(C)C=O): 557 nm
- emission maximum (in Cc1ccccc1): 445 nm
- emission maximum (in ClCCl): 510 nm

Structure (SMILES): CCC1=C(C)C2=C(C)c3c(C)c(-c4csc(N5CCOCC5)n4)c(C)n3[B-](F)(F)[N+]2=C1C
- emission maximum (in C1CCOC1): 618 nm
- emission maximum (in C1COCCO1): 606 nm
- emission maximum (in CC#N): 543 nm
- emission maximum (in CC(C)O): 538 nm
- emission maximum (in CCO): 539 nm
- emission maximum (in CCOC(C)=O): 549 nm
- emission maximum (in CN(C)C=O): 539 nm
- emission maximum (in CO): 540 nm
- emission maximum (in CS(C)=O): 539 nm
- emission maximum (in Cc1ccccc1): 597 nm
- emission maximum (in ClC(Cl)Cl): 603 nm
- emission maximum (in ClCCl): 537 nm

Structure (SMILES): CC1=[N+]2C(=C(c3cccs3)c3ccc(C)n3[B-]2(F)F)C=C1c1cc2n(c1)[B-](F)(F)[N+]1=CC=CC1=C2c1c(C)cc(C)cc1C
- emission maximum (in C1CCCCC1): 650 nm
- emission maximum (in CCOC(C)=O): 670 nm

Structure (SMILES): CC(C)(C)c1ccc2c(c1)c1cc(C(C)(C)C)ccc1n2-c1ccc(C#Cc2ccc3c4ccc(C#Cc5ccc(C=O)cc5)cc4n(-c4ccc(C(F)(F)F)cc4)c3c2)cc1
- emission maximum (in ClCCl): 422 nm

Structure (SMILES): c1ccc(N2N=C(c3c4ccccc4cc4ccccc34)CC2c2ccc3ccc4cccc5ccc2c3c45)cc1 (stereo not given)
- emission maximum (in ClCCl): 509 nm

Structure (SMILES): N#Cc1ccc(C#Cc2ccccc2C#N)cc1
- emission maximum (in ClC(Cl)Cl): 332 nm

Structure (SMILES): Cc1cc(C)c2c(c1)c1cc(C)cc(C)c1n2-c1ccc2c(c1)Oc1ccccc1B2c1c(C(C)C)cc(C(C)C)cc1C(C)C
- emission maximum (in Cc1ccccc1): 443 nm

Structure (SMILES): CCOc1cccc(-c2nc3c(c4c2-c2ccccc2CC4)-c2ccccc2CC3)c1O
- emission maximum (in ClCCl): 406 nm

Structure (SMILES): COC(=O)c1cc(=O)n(C)c2cc(-c3ccccc3)sc12
- emission maximum (in CC#N): 462 nm
- emission maximum (in ClCCl): 462 nm

Structure (SMILES): COc1ccc(C#Cc2c3cc4ccccc4cc3c(C#C[Si](C(C)C)(C(C)C)C(C)C)c3cc4ccccc4cc23)cc1
- emission maximum (in ClCCl): 666 nm

Structure (SMILES): Cn1cc(/C=C/C(=O)c2ccccc2)c2ccccc21
- emission maximum (in CC#N): 419.32 nm
- emission maximum (in CO): 446.19 nm

Structure (SMILES): CCOC(=O)c1c(-c2cc3ccccc3oc2=O)nn(-c2ccc(Cl)cc2)c1C(=O)OCC
- emission maximum (in ClCCl): 402 nm

Structure (SMILES): Cc1nc2c(ccc3ccc(O)cc32)oc1=O
- emission maximum (in c1ccccc1): 461 nm

Structure (SMILES): Clc1nc(Nc2ccccc2)nc(Nc2ccc3c4cccc5cccc(c6cccc2c63)c54)n1
- emission maximum (in C1COCCO1): 478 nm
- emission maximum (in CC#N): 477 nm
- emission maximum (in CCCCOCCCC): 476 nm
- emission maximum (in CCOC(C)=O): 475 nm

Structure (SMILES): O=C1c2ccccc2-c2c(-c3cc(Cl)ccc3O)[nH]c(=O)n21
- emission maximum (in CC#N): 475 nm
- emission maximum (in CO): 493 nm
- emission maximum (in ClCCl): 475 nm

Structure (SMILES): c1cc2c3c(c1)-c1ccc4c5c(ccc(c15)B3c1ccc3c5c(ccc-2c15)CC3)CC4
- emission maximum (in Cc1ccccc1): 516 nm

Structure (SMILES): CCCCc1cc(-c2cccc(COC)c2)oc1-c1cccc(-c2oc(-c3cccc(COC)c3)cc2CCCC)c1
- emission maximum (in ClC(Cl)Cl): 371 nm

Structure (SMILES): CCCCCCOc1cc(N(CC)CC)ccc1/C=C/C(=C(C#N)C#N)c1ccc2c(c1)c1ccccc1n2CC
- emission maximum (in ClCCl): 583 nm

Structure (SMILES): COc1ccc(-c2oc3cccc4c5c(-c6ccc(OC)c(OC)c6)/c(=N/S(=O)(=O)C(F)(F)F)oc6cccc(c2c34)c65)cc1OC
- emission maximum (in ClC(Cl)Cl): 613 nm

Structure (SMILES): CCCCCCCCOc1ccc(C#Cc2ccc(C#Cc3ccc(OCCCCCCCC)c(OCCCCCCCC)c3)c3nc4c5ccccc5c5ccccc5c4nc23)cc1OCCCCCCCC
- emission maximum (in C1CCOC1): 558 nm
- emission maximum (in Cc1ccccc1): 541 nm
- emission maximum (in ClCCl): 566 nm

Structure (SMILES): COc1ccc(-c2cccc3ncc(-c4ccccc4)n23)cc1
- emission maximum (in ClCCl): 468 nm

Structure (SMILES): CCCCN(CCCC)c1ccc(/C=C/c2ccc3nc(/C=C/c4ccc(N(C)C)cc4)c(-c4ccccc4)nc3c2)cc1
- emission maximum (in C1COCCO1): 549 nm
- emission maximum (in CC#N): 661 nm
- emission maximum (in ClCCl): 615 nm

Structure (SMILES): c1ccc(-c2nc(-c3ccccc3)nc(-c3ccc(-n4c5ccc(-c6ccc7oc8ccccc8c7c6)cc5c5cc(-c6ccc7oc8ccccc8c7c6)ccc54)cc3)n2)cc1
- emission maximum (in CCOC(C)=O): 476 nm
- emission maximum (in CN(C)C=O): 529 nm
- emission maximum (in Cc1ccccc1): 437 nm

Structure (SMILES): Cc1ccc(-c2nc3c([nH]2)C2=CC(=O)S[C@]2(C)[C@@]2(C)SC(=O)C=C32)cc1
- emission maximum (in CC#N): 520 nm

Structure (SMILES): CCOC(=O)/N=c1/oc2cc(OC)cc(OC)c2cc1C#N
- emission maximum (in ClCCl): 442 nm

Structure (SMILES): CCOC(=O)CC[N+]1=c2cc3c(cc2CCC1)=Cc1c(c2ccc(N(C)C)cc2oc1=O)O3
- emission maximum (in CC#N): 643 nm
- emission maximum (in CO): 641 nm
- emission maximum (in ClCCl): 637 nm
- emission maximum (in O): 644 nm

Structure (SMILES): CCC1(CC)c2cc(-c3cccs3)ccc2-c2c1c1c(c3c2C(CC)(CC)c2cc(-c4cccs4)ccc2-3)C(CC)(CC)c2cc(-c3cccs3)ccc2-1
- emission maximum (in C1CCOC1): 385 nm

Structure (SMILES): CN(C)c1ccc(C2=Cc3cc(Cl)nc[n+]3[B-](F)(F)O2)cc1
- emission maximum (in C1CCOC1): 532 nm
- emission maximum (in CC#N): 565 nm
- emission maximum (in CCCCCC): 456 nm
- emission maximum (in Cc1ccccc1): 494 nm
- emission maximum (in ClC(Cl)Cl): 512 nm
- emission maximum (in ClCCl): 529 nm

Structure (SMILES): c1ccc(-c2nn(-c3ccccc3)c3nc4ccc(N(c5ccccc5)c5ccccc5)cc4cc23)cc1
- emission maximum (in C1CCCCC1): 486.62 nm
- emission maximum (in C1CCOC1): 524.66 nm
- emission maximum (in CC#N): 570.78 nm
- emission maximum (in CC(C)=O): 551.27 nm
- emission maximum (in CCCCCl): 516 nm
- emission maximum (in CCCCOCCCC): 498.75 nm
- emission maximum (in CN(C)C=O): 567.21 nm

Structure (SMILES): c1cc2oc3cccc4oc5cccc6oc(c1)c2[c+](c34)c65
- emission maximum (in CC#N): 524 nm

Structure (SMILES): CC(C)(C)c1ccc(C(C)(C)C)c(N2C(=O)c3cccc4c(-c5ccc(-c6ccccc6)s5)ccc(c34)C2=O)c1
- emission maximum (in CO): 572 nm
- emission maximum (in CS(C)=O): 557 nm
- emission maximum (in Cc1ccccc1): 493 nm

Structure (SMILES): CCCCC(CC)Cn1c2cc(C#N)ccc2c2ccc(C#Cc3ccc4ccc5c(C#Cc6ccc7c8ccc(C#N)cc8n(CC(CC)CCCC)c7c6)cc(C#Cc6ccc7c8ccc(C#N)cc8n(CC(CC)CCCC)c7c6)c6ccc3c4c56)cc21 (stereo not given)
- emission maximum (in ClCCl): 458 nm

Structure (SMILES): Cc1ccc(C2=Cc3ccc4ccccc4[n+]3[B-](F)(F)O2)cc1
- emission maximum (in ClC(Cl)Cl): 443 nm

Structure (SMILES): c1cc2ccc3cc4cccc5ccc6cc(c1)c2c3c6c54
- emission maximum (in C1CCCCC1): 436 nm
- emission maximum (in CC#N): 436 nm
- emission maximum (in CO): 436 nm
- emission maximum (in Cc1ccccc1): 436 nm
- emission maximum (in ClCCl): 437 nm

Structure (SMILES): CN(C)c1ccc2cc3ccc(N(C)C)cc3nc2c1
- emission maximum (in O): 530 nm

Structure (SMILES): C(=C\c1ncnc2ccccc12)/c1ccc(N2CCCCC2)cc1
- emission maximum (in C1CCCCC1): 480 nm
- emission maximum (in C1CCOC1): 540 nm
- emission maximum (in CC#N): 579 nm
- emission maximum (in CS(C)=O): 589 nm
- emission maximum (in ClCCl): 558 nm

Structure (SMILES): CN(C)c1c2ccccc2cc2ccccc12
- emission maximum (in C1CCCCC1): 391 nm
- emission maximum (in C1CCOC1): 392 nm
- emission maximum (in C1COCCO1): 392 nm
- emission maximum (in CC#N): 390 nm
- emission maximum (in CCO): 389 nm
- emission maximum (in CN(C)C=O): 392 nm
- emission maximum (in CO): 389 nm
- emission maximum (in COCCOC): 392 nm
- emission maximum (in CS(C)=O): 395 nm
- emission maximum (in O): 390 nm
- emission maximum (in OCC(O)CO): 393 nm
- emission maximum (in OCCO): 392 nm

Structure (SMILES): c1cc(-n2c3ccccc3c3ccccc32)c(-c2nc3ccccn3n2)c(-n2c3ccccc3c3ccccc32)c1
- emission maximum (in Cc1ccccc1): 397 nm

Structure (SMILES): N#Cc1ccc(N(c2ccccc2)c2ccc3ccc4c(N(c5ccccc5)c5ccc(C#N)cc5)ccc5ccc2c3c54)cc1
- emission maximum (in ClCCl): 454 nm

Structure (SMILES): CCCCCCn1c2ccsc2c2sc3c(sc4c5sccc5n(CCCCCC)c43)c21
- emission maximum (in ClCCl): 411 nm

Structure (SMILES): CC1=CC(C)=[N+]2C1=C(c1ccccc1)c1c(C)cc(/C=C/c3ccccc3)n1[B-]2(F)F
- emission maximum (in CC#N): 569 nm

Structure (SMILES): CCCCn1c2ccc(-c3ccc(OC)cc3)cc2c2ccc3c4cc(-c5ccc(OC)cc5)ccc4n(CCCC)c3c21
- emission maximum (in ClC(Cl)Cl): 415 nm

Structure (SMILES): CN(C)c1ccc(/C=C/C=C/c2ccc(B(O)O)cc2)cc1
- emission maximum (in C1CCCCC1): 441 nm
